Laboratory results: patent US20060052387A1, “Organic compounds” (priority 2002, published 2006)
Where two headings read alike, the source gives them in different places.

Columns and labels:
[1] = system: M-CSF-stimulated human monocytes; conditions: for numbers of viable cells after the incubation period / numbers of viable cells after the incubation period, Mean: M-CSF 20 ng/mL + DMSO, 24 hours; for numbers of viable cells after the incubation period, Mean: Mean of 3 experiments
[2] = system: Caspase-3 activity in M-CSF-stimulated human monocytes; conditions: M-CSF 20 ng/mL + DMSO, 18 hours
Text: Caspase-3 is a cysteine aspartate protease involved in the cascade leading to DNA fragmentation. Caspase-3 cleaves one subunit of a dimer called DNA fragmentation factor (DFF) at a tetrapeptide sequence DEVD, the other subunit then activates a nuclease that degrades DNA. […] Caspase-3 activity is defined as the amount of free amino trifluoromethylcoumarin (AFC) released from the caspase-3 selective fluorosubstrate DEVD-AFC measured by fluorometry. In the following table, caspase activity is given in pmol/min/mg.

Akt = conditions: SALT I 1 or 5 NM (so in the source); M-CSF 100 ng/mL for three minutes
Protocol: Akt1 also called protein kinase B is a serine/threonine kinase involved in a signaling pathway activated by the Bcr-Ab1 activity. Phosphorylated Akt1 phosphorylates cellular proteins and promotes cell proliferation and cell survival.
In vitro Akt kinase assays were performed as described in Kelley et al., supra. Briefly, monocytes were incubated overnight with M-CSF (20 ng/mL), serum-starved for 1.5 hours. […] Akt protein was immunoprecipitated from the cell lysate. The blot was probed with anti-phospho-threonine-Akt, stripped and re-probed for total Akt.

SMILES: CS(=O)(=O)O.Cc1ccc(NC(=O)c2ccc(CN3CCN(C)CC3)cc2)cc1Nc1nccc(-c2cccnc2)n1 [SALT I]
- numbers of viable cells after the incubation period ([1]; Experiment 1, SALT I 1 pM (so in the source)): 130
- numbers of viable cells after the incubation period ([1]; Experiment 1, SALT I 5 pM (so in the source)): 156
- numbers of viable cells after the incubation period ([1]; Experiment 1, SALT I 10 pM (so in the source)): 138
- numbers of viable cells after the incubation period ([1]; Experiment 1, SALT I 50 pM (so in the source)): 46
- numbers of viable cells after the incubation period ([1]; Experiment 1, SALT I 100 pM (so in the source)): 15
- numbers of viable cells after the incubation period ([1]; Experiment 2, SALT I 1 pM (so in the source)): 79
- numbers of viable cells after the incubation period ([1]; Experiment 2, SALT I 5 pM (so in the source)): 47
- numbers of viable cells after the incubation period ([1]; Experiment 2, SALT I 10 pM (so in the source)): 46
- numbers of viable cells after the incubation period ([1]; Experiment 2, SALT I 50 pM (so in the source)): 7
- numbers of viable cells after the incubation period ([1]; Experiment 2, SALT I 100 pM (so in the source)): 11
- numbers of viable cells after the incubation period ([1]; Experiment 3, SALT I 1 pM (so in the source)): 143
- numbers of viable cells after the incubation period ([1]; Experiment 3, SALT I 5 pM (so in the source)): 75
- numbers of viable cells after the incubation period ([1]; Experiment 3, SALT I 10 pM (so in the source)): 58
- numbers of viable cells after the incubation period ([1]; Experiment 3, SALT I 50 pM (so in the source)): 36
- numbers of viable cells after the incubation period ([1]; Experiment 3, SALT I 100 pM (so in the source)): 16
- number of monocytes surviving at 18 hours (in words) ([1]; M-CSF stimulated monocytes, 18 hours): reduces
- numbers of viable cells after the incubation period, Mean ([1]; SALT I 1 pM (so in the source)): 117
- numbers of viable cells after the incubation period, Mean ([1]; SALT I 5 pM (so in the source)): 93
- numbers of viable cells after the incubation period, Mean ([1]; SALT I 10 pM (so in the source)): 81
- numbers of viable cells after the incubation period, Mean ([1]; SALT I 50 pM (so in the source)): 30
- numbers of viable cells after the incubation period, Mean ([1]; SALT I 100 pM (so in the source)): 14
- caspase activity ([2]; Donor 1, SALT I 0.1 pM (so in the source)): 156 pmol/min/mg
- caspase activity ([2]; Donor 1, SALT I 1 pM (so in the source)): 356 pmol/min/mg
- caspase activity ([2]; Donor 1, SALT I 5 pM (so in the source)): 573 pmol/min/mg
- caspase activity ([2]; Donor 1, SALT I 10 pM (so in the source)): 629 pmol/min/mg
- caspase activity ([2]; Donor 2, SALT I 0.1 pM (so in the source)): 220 pmol/min/mg
- caspase activity ([2]; Donor 2, SALT I 1 pM (so in the source)): 299 pmol/min/mg
- caspase activity ([2]; Donor 2, SALT I 5 pM (so in the source)): 329 pmol/min/mg
- caspase activity ([2]; Donor 2, SALT I 10 pM (so in the source)): 407 pmol/min/mg
- Akt phosphorylation (in words) (Akt): Decreases
